Activity calls are given as the source filed them.
Columns and labels:
[1] = P. falciparum Dd2 growth inhibitors, dose response, SYBR Green, cherry-picked samples (AID 1159567); assay type: functional, cell-based
[2] = P. falciparum Dd2 growth inhibitors, dose response, SYBR Green, dry powder samples, set 9 (AID 1159568); assay type: functional, cell-based
[3] = HepG2 cell cytotoxicity, dose response, cytotoxicity control, plate reader, dry powder samples (AID 1159569); assay type: functional, cell-based;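 also: inhibitor potency with signal falling toward the positive control level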
[4] = P. falciparum ATP4 D1247Y mutant growth inhibitors, dose response, NITD609-resistant line, SYBR Green, dry powder (AID 1159571); assay type: functional, cell-based;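 also: parasites synchronized at ring stage by sorbitol before testing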
[5] = P. falciparum 3D7-ScDHODH growth inhibitors, dose response, SYBR Green, dry powder samples (AID 1159570); assay type: functional, cell-based;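 also: parasite growth measured after 72 hours of compound exposure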
[6] = P. falciparum Dd2 growth inhibitors, dose response, SYBR Green, dry powder samples (AID 1159566); assay type: functional, cell-based;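 also: potency for growth inhibition with lower SYBR green DNA signal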
Kallikrein-7 = Kallikrein-7 (Homo sapiens, UniProt P49862); test: Fluorescence Intensity-based biochemical primary high throughput dose response assay to identify activators of kallikrein-7 (K7) zymogen.
[7] = CEM21 lymphoblast cell cytotoxicity, dose response, cytotoxicity control for viral fusion inhibitor project, CellTiter-Glo luminescence, cherry-picked (AID 652042); assay type: functional, cell-based;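 also: potency for signal decrease meaning cytotoxicity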
[8] = off-target signal loss in HeLa-CEM21 co-culture – HeLa F-luc CTL cells, cherry-picked, counter-screen for HIV-1 Env fusion inhibitor project, dose response (AID 652040); assay type: functional, cell-based;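 also: potency for signal decrease marking cytotoxic or nonspecific inhibition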
[9] = inhibitors of clade B AD8 Env fusion, dose response, cell-based, cherry-pick (AID 652062); assay type: functional;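 also: luciferase signal from cell-cell fusion driven by HIV-1 clade B AD8 Env; potency is for inhibitors of fusion seen as a drop in luminescence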
[10] = HEK293T cell cytotoxicity, dose response, cytotoxicity control for HIV Vif inhibitor project, cherry-picks (AID 652208); assay type: functional, cell-based
[11] = HEK293T cytotoxicity, dose response, cytotoxicity control for miR-122 modulator project, cell-based, inhibitor set, cherry-pick, set 2 (AID 720697); assay type: functional
[12] = target: T1, Mannose-6-phosphate isomerase (Homo sapiens, UniProt P34949); test: human PMI inhibitors, high substrate, primary screen, biochemical, fluorescence intensity, high mannose 6-phosphate (AID 1220)
T1 sequence (P34949 whole entry): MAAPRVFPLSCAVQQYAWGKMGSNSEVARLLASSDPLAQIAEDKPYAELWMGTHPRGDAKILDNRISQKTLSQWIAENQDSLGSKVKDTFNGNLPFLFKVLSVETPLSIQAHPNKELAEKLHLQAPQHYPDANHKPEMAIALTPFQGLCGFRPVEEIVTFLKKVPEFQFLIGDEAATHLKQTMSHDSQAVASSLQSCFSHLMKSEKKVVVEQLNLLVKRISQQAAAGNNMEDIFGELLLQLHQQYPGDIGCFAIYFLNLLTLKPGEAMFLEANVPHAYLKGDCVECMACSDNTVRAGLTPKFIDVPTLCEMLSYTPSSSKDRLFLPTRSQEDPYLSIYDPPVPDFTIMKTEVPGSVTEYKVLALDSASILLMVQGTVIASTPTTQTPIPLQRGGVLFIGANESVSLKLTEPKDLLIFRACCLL

cells = assay type: functional
[13] = microbe, parasite or virus in culture; assay type: functional; conditions: Mycobacterium tuberculosis
[14] = target: FAD-linked sulfhydryl oxidase ALR (Homo sapiens, UniProt P55789); test: inhibitors of human ALR sulfhydryl oxidase, dose response, biochemical, H2O2 detection, luminescence, cherry-pick (AID 493248)
[15] = HepG2 cell cytotoxicity, dose response, cytotoxicity control, ATP luminescence, cherry-pick, activator set 2 (AID 1053143); assay type: functional, cell-based
[16] = inhibitors of PGC1a acetylation in cells, dose response, cell-based, cherry-picked samples (AID 720514); assay type: functional;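 also: potency may reflect raised or lowered acetylation signal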
[17] = target: T2, Corticotropin-releasing factor receptor 2/Corticotropin-releasing factor-binding protein (Homo sapiens, UniProt P24387+Q13324); test: activators of CRF receptor 2 with binding protein – uHTS hits, confirmation (AID 602473); assay type: functional; conditions: read-out: EC50_Mean
T2 sequence (Q13324 whole entry): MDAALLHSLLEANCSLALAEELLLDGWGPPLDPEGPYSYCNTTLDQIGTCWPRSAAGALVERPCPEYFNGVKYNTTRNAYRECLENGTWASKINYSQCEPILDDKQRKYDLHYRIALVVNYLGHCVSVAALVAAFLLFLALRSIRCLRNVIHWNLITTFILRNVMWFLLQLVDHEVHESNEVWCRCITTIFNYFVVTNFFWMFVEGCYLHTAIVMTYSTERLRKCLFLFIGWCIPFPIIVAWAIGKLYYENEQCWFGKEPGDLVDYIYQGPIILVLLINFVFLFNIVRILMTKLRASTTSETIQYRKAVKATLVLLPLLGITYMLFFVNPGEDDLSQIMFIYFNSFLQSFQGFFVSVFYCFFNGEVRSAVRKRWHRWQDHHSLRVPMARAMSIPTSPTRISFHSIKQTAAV
T2 sequence (P24387 whole entry): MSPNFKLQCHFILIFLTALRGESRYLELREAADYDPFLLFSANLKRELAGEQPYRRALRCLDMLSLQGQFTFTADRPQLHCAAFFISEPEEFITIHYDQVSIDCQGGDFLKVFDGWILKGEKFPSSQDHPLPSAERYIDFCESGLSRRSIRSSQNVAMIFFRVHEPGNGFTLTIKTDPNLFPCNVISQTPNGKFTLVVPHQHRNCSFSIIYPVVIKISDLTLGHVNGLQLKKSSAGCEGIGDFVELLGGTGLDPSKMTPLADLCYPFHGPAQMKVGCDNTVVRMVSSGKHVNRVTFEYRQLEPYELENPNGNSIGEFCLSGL

Vero [18] = test: Vero cell toxicity, dose response, cytotoxicity control, plate reader, cherry-pick samples (AID 687020); assay type: functional, cell-based; conditions: Chlorocebus sabaeus
[19] = inhibitors of intracellular T. cruzi replication, confirmation, NIH3T3 host cells, beta-gal luminescence (AID 2044); assay type: functional, cell-based;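 also: intracellular parasites grown in NIH/3T3 mouse fibroblasts as host cells; luminescent beta-galactosidase reporter signal from transgenic T. cruzi replicating inside host cells; inhibitors lower the luminescence signal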
INS1 = test: beta cell apoptosis inhibitors, cytokine rescue, dose response, luminescence, retest (AID 449756); assay type: functional, cell-based; conditions: Rattus norvegicus, INS1;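 also: cell death triggered by IL-1 beta plus TNF-alpha plus IFN-gamma mixture; protective hits raise ATP signal compared with cytokine alone wells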
[20] = inhibitors of HIV Env-driven cell fusion, dose response, cherry-pick (AID 652057); assay type: functional, cell-based
[21] = ZM109 Env clade C HIV-1 fusion inhibitors, dose response, HeLa effector, CEM target cells, luciferase, cherry-pick (AID 652058); assay type: functional, cell-based
[22] = cytotoxicity toward NIH3T3 fibroblasts, dose response, counter-screen, cell-based, ATP luminescence, mouse fibroblasts (AID 2010); assay type: functional;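 also: cells exposed to compound for about 90 hours before reading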
Vero [23] = test: cells; assay type: functional; conditions: Chlorocebus sabaeus
[24] = target: Photoreceptor-specific nuclear receptor (Homo sapiens, UniProt Q9Y5X4); assay type: functional, cell-based;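 also: CHO-S cells with Gal4-NCOR and VP16-NR2E3 two-hybrid luciferase reporter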
Photoreceptor-specific nuclear receptor, sequence (Q9Y5X4 whole entry, the tested form may be a part): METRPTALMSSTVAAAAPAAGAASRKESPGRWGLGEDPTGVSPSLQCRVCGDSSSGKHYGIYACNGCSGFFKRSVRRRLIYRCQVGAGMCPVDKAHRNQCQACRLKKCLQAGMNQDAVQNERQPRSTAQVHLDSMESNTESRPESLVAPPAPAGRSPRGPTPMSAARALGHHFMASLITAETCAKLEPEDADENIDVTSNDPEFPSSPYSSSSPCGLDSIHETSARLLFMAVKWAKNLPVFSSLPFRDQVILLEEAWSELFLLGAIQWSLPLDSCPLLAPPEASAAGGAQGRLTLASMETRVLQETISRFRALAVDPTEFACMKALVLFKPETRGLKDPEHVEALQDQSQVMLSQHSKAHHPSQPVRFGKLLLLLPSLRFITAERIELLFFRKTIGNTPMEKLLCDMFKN

Kallikrein-7, sequence (P49862 whole entry, the tested form may be a part): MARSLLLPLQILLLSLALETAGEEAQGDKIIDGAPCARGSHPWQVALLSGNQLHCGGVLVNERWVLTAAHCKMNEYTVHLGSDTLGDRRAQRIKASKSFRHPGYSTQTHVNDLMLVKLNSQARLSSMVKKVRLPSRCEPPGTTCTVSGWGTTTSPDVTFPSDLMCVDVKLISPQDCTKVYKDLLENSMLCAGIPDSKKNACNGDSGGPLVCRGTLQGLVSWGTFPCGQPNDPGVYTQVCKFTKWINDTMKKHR
FAD-linked sulfhydryl oxidase ALR, sequence (P55789 whole entry): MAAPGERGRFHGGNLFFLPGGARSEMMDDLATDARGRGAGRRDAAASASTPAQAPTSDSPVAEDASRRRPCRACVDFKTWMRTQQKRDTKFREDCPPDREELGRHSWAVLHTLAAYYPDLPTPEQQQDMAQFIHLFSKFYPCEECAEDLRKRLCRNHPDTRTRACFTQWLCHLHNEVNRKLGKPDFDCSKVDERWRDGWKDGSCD

Compound: C[C@H](CO)N1C[C@H](C)[C@H](CN(C)C(=O)C2CCCCC2)Oc2ncc(C#Cc3cccc(F)c3)cc2C1=O
- AC50 [1]: 1.39 µM (active)
- AC50 [2]: 0.269 µM (active)
- AC50 [3]: 49.1 µM (active)
- AC50 [4]: 0.725 µM (active)
- AC50 [5]: 0.848 µM (active)
- AC50 [6]: 0.408 µM (active)

Compound: CS(=O)(=O)Nc1ccc(-c2cnc3cccnn23)cc1
- EC50 (Kallikrein-7): 24.1 µM (inactive)

Compound: O=C(Nc1ccc(C(=O)OC2CCCCC2)cc1)c1ccncc1
- AC50 [7]: 64.2 µM (active)
- AC50 [8]: > 70 µM (inactive)
- AC50 [9]: 13.8 µM (active)

Compound: Cc1ccc(S(=O)(=O)c2nc(-c3ccccc3Cl)oc2N(C)C2CCN(C)CC2)cc1
- AC50 [10]: 23.3 µM (active)

Compound: CC(C)C(=O)Nc1ccc2c(c1)C(=O)N(C)[C@H]1CC[C@H](CC(=O)O)O[C@H]1CO2
- AC50 [11]: 0.437 µM (active)

Compound: C[C@H](CO)N1C[C@H](C)[C@H](CN(C)C(=O)C2CCC2)Oc2cc(-c3ccc(C(=O)N(C)C)cc3)ccc2S1(=O)=O
- AC50 [11]: 9.74 µM (active)

Compound: CCCCn1c(Cc2ccccc2)nnc1SCC(=O)Nc1cc(C)on1
- IC50 [12]: > 50 µM (not active)

Compound: Cc1cc(=O)n2cccc(O)c2n1
- IC50 (cells): 9.19 µM (active)
- IC50 [12]: 22.9 µM (active)
- CC50 [13]: > 40 µM (active)

Compound: Cc1ccc(Nc2nc(-c3ccc(O)cc3O)cs2)nc1
- AC50 [14]: 0.288 µM (active)
- AC50 [15]: 26 µM (active)

Compound: O=C1C=CCCN1C(=O)/C=C/c1cccc(Br)c1
- AC50 [16]: 0.949 µM (active)

Compound: Cc1ccc(CNC(=O)c2cccc3c2C(=O)c2ccc(N4CCC(C)CC4)cc2S3(=O)=O)cc1
- AC50 [10]: 39.3 µM (active)
- EC50 [17]: 5.51 µM (active)

Compound: O=C(c1ccncc1)N1CCCC(N2CCN(c3cccc(C(F)(F)F)c3)CC2)C1 (stereo unspecified)
- AC50 (Vero [18]): 31.8 µM (active)

Compound: O=C(c1ccc2c3n(nc2c1)-c1ccc(Cl)cc1CO3)N1CCCCC1
- AC50 [15]: 26 µM (active)

Compound: O=C(NC1CCCCCCC1O)c1ccccc1 (stereo unspecified)
- AC50 [16]: 35.4 µM (active)

Compound: N#Cc1c(N2CCOCC2)nc(N)c2c(N)nc3c(c12)CC(CCl)O3 (stereo unspecified)
- EC50 (Kallikrein-7): > 69.5 µM (inactive)

Compound: O=C(Nc1ccccc1F)N1CCCCN2[C@H](CO)[C@H](c3ccc(/C=C/c4ccccc4)cc3)[C@@H]2C1
- AC50 [2]: 12 µM (active)

Compound: Cc1nn(-c2ccccc2)c2c1cc1c(=O)n(C)c(=O)nc-1n2-c1ccccc1F
- EC50 (Kallikrein-7): 52.9 µM (inactive)

Compound: S=C(NCc1ccc(Cl)cc1)NC12CC3CC(CC(C3)C1)C2
- EC50 [19]: 3.41 µM (active)
- AC50 (INS1): 5.6 µM (active)
- AC50 [20]: 4.88 µM (active)
- AC50 [7]: 31.8 µM (active)
- AC50 [21]: 6.05 µM (active)
- CC50 [13]: 18.8 µM (active)
- EC50 [22]: > 60 µM (not active)
- AC50 [8]: 13.1 µM (active)
- AC50 [9]: 8.99 µM (active)

Compound: Cc1ccc(CNC(=O)C2CCC(=O)N(CCc3ccccn3)C2)s1 (stereo unspecified)
- AC50 (Vero [18]): 35.6 µM (active)

Compound: O=C1C=CCCN1S(=O)(=O)/C=C/c1ccccc1
- AC50 [16]: 1.19 µM (active)

Compound: CN(C)c1ncnc2c1ccn2C1OC(CO)C(O)C1O (stereo unspecified)
- CC50 (Vero [23]): > 25 µM (active)
- AC50 [20]: 4.51 µM (active)
- AC50 [7]: 1.39 µM (active)
- IC50 [24]: 1.45 µM (active)
- AC50 [21]: 3.41 µM (active)
- AC50 [8]: 1.9 µM (active)
- AC50 [9]: 1.89 µM (active)

Source: ChEMBL document CHEMBL1201862, “PubChem BioAssay data set” (2004)
